The values that follow come from patent US20250221979A1, “NOVEL HETEROCYCLIC COMPOUND” (SHOUYAO HOLDINGS (BEIJING) CO., LTD., priority 2022, published 2025).

In general, AUC refers to the area under the concentration-time curve, a measure of exposure. Read a high AUC as high exposure. As a reminder, the Cmax is the peak of the concentration-time curve. For orientation: Tmax means the time from dosing to the highest level. In general, half-life refers to the time needed for the level to fall by half in the phase considered. Low values mean rapid decline, high ones slow decline.

Data set [1] concerns the target human MAT2A enzyme (Homo sapiens (Human), UniProt P31153). Put plainly: In vitro enzymatic inhibition activity assay on MAT2A (PiColorLock phosphate detection). Particulars: purified human MAT2A 10 nM, ATP 50 μM, L-methionine 100 μM, 6 h at 23° C.; read-out: MAT2A inhibitory activity IC50. Format: biochemical. The gist of the method: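 IC50 came from an 8-point, 10-fold compound series that reduced phosphate release, measured by absorbance at 630 nm. Reactions ran 6 h at 23 °C with 10 nM human MAT2A, 50 μM ATP and 100 μM L-methionine in pH 7.5 Tris buffer containing Mg2+.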

For data set [2], the system named is HCT116 MTAP−/− cells. The data set can be described thus: Inhibition of proliferation of HCT116 MTAP-/- cells (Cell-Titer Glo, 7 days). The format is cell-based. The following applies: Homo sapiens, HCT-116, 168 h (7 days) incubation, read-out: HCT116 MTAP−/− antiproliferative activity IC50. The method, then: The MTAP deficient human colorectal cancer cell line HCT116 MTAP−/− was constructed using CRJSPR Cas9 technology and cultured in DMEM medium supplemented with 10% fetal bovine serum (FBS, purchased from Gibco) and 1% penicillin/streptomycin (P/S, purchased from Thermo Fisher Scientific) at 37° C. with 5% CO2. HCT116 MTAP−/− cells were plated in 96 well plates (#3917, purchased from CORNING) at a concentration of 200 cells/195 μL/well. After 24 h, the compounds were diluted in a 3-fold gradient starting at 10 mM with 100% DMSO (for a total of 10 concentrations), then 4 μL of each concentration was added to 96 μL of serum-free DMEM medium for dilution. 5 μL of diluted compound at each concentration was added to the plated cell suspension and the compound was incubated with the cells for 168 h (7 days) in a cell culture incubator. The medium was then removed and 25 μL of Cell-Titer Glo® (G7570, purchased from Promega) reagent was added. Chemiluminescence values were read on a BMG and data were processed using GraphPad Prism software to calculate IC50 values for inhibition of cell proliferation by the compounds.

A short description of data set [3]: In vivo pharmacokinetic study in CD-1 mice. The following applies: male, mouse, single oral gavage dose of 10 mg/kg, plasma. The method, then: In vivo pharmacokinetic study in CD-1 mice
Twenty-four healthy adult male mice from Beijing Vital River Laboratory Animal Technology Co., Ltd. were used in the study.
CD-1 mice were administered with a single oral gavage dose of 10 mg/kg in a volume of 10 mL/kg at a concentration of 1 mg/mL.
The test article in this project is generally suspended in 0.5% hydroxypropylmethyl cellulose, 0.1% Tween 80 (W/V/V) aqueous solution at the concentration of 1 mg/mL.
Animals dosed by gavage were fasted overnight before the experiment from 16 h before dosing to 4 h after dosing. Blood was collected at 0.25, 0.5, 1, 2, 4, 6, 8, and 24 h after administration successively. The animals were lightly anesthetized with isoflurane. About 0.2 mL of whole blood was collected from the orbital venous plexus using a glass blood collection tube and placed in a sodium heparin anticoagulant tube. The sample was centrifuged at 5200 rpm for 5 min at 4° C. The plasma was transferred to a centrifuge tube and stored at −80° C. until analysis.
Analysis of plasma samples Test compounds and internal standards (warfarin or propranolol) were extracted from mouse plasma using an acetonitrile protein precipitation method and the extracts were analyzed by LC/MS/MS. The measured plasma concentration-time data of individual animals were analyzed using the non-compartmental model of WinNonlin (version 5.2.1, Pharsight) software to obtain the corresponding pharmacokinetic parameters: maximum (peak) plasma drug concentration Cmax; Time to peak Tmax; Half-life T1/2 and area under the plasma concentration-time curve extrapolated to infinite time AUC0-inf.

human MAT2A enzyme, sequence (P31153 whole entry): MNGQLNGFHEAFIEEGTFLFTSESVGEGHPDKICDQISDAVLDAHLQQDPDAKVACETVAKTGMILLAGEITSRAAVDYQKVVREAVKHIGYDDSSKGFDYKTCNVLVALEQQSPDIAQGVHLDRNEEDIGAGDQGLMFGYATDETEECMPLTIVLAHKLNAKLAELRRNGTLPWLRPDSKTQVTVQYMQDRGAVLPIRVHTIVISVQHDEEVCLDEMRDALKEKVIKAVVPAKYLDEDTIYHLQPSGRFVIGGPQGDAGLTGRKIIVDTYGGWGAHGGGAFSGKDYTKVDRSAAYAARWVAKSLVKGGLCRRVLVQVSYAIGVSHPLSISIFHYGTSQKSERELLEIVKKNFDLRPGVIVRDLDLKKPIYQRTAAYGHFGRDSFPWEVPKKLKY

Turning to `COC(=O)c1c(N)c2ccc(C(F)(F)F)cc2n(-c2ccc(CO)cc2)c1=O` [Example 86, methyl 4-amino-2-oxo-1-(4-(hydroxymethyl)phenyl)-7-(trifluoromethyl)-1,2-dihydroquinoline-3-carboxylate], the IC50 in data set [1] turned out to be 2.37 nM; in data set [2] it was 85.2 nM.

For the molecule `COC(=O)c1c(N)c2ccc(Br)cc2n(-c2ccc3c(c2)OCO3)c1=O` [Example 92, methyl 4-amino-1-(benzo[d](1,3)dioxol-5-yl)-7-bromo-2-oxo-1,2-dihydroquinoline-3-carboxylate], the IC50 in data set [1] came to 0.83 nM; in data set [2] it was 87.2 nM.

`COC(=O)c1c(N)c2ccc(C(F)(F)F)cc2n(-c2ccc(C(C)O)cc2)c1=O` (stereo not shown) [Example 122, methyl 4-amino-1-(4-(1-hydroxyethyl)phenyl)-2-oxo-7-(trifluoromethyl)-1,2-dihydroquinoline-3-carboxylate]: the IC50 turned out to be 2.17 nM in data set [1] and 50 nM in data set [2].

With `COC(=O)c1c(N)c2ccc(Br)cc2n(-c2cccc3cnccc23)c1=O` [Example 154, methyl 4-amino-7-bromo-1-(isoquinolin-5-yl)-2-oxo-1,2-dihydroquinoline-3-carboxylate], the IC50 in data set [1] is 3 nM; in data set [2], 35.1 nM.

As to `COC(=O)c1c(N)c2ccc(C(F)(F)F)nc2n(-c2ccc(Cl)cc2)c1=O` [Example 173, methyl 4-amino-1-(4-chlorophenyl)-2-oxo-7-(trifluoromethyl)-1,2-dihydro-1,8-naphthyridine-3-carboxylate], the IC50 in data set [1] worked out at 1.18 nM; in data set [2] it was 30.9 nM.

For `COC(=O)c1c(N)c2ccc(C(F)(F)F)cc2n(-c2ccc(C(C)O)nc2)c1=O` (stereo not shown) [Example 175, methyl 4-amino-1-(6-(1-hydroxyethyl)pyridin-3-yl)-2-oxo-7-(trifluoromethyl)-1,2-dihydroquinoline-3-carboxylate], the IC50 in data set [1] came out at 6.25 nM; in data set [2], 53.5 nM.

As for `COC(=O)c1c(N)c2ccc(Br)cc2n(-c2ccc(Cl)c3cnccc23)c1=O` [Example 176, methyl amino-1-(8-chloroisoquinolin-5-yl)-7-bromo-2-oxo-1,2-dihydroquinoline-3-carboxylate], the IC50 in data set [1] was determined as 2.74 nM; in data set [2], 39.2 nM.

In the case of `COC(=O)c1c(N)c2ccc(Br)cc2n(-c2ccc(N)nc2)c1=O` [Example 180, methyl 4-amino-1-(6-aminopyridin-3-yl)-7-bromo-2-oxo-1,2-dihydroquinoline-3-carboxylate], the IC50 in data set [1] is 0.76 nM. Further, in data set [3], the area under the curve (AUC) is 32.8 µg·h/mL, the concentration peaked (Cmax) at 5060 ng/mL, the Tmax came out at 2.08 h and the half-life was 4.09 h.

Take `COC(=O)c1c(N)c2ccc(Br)cc2n(-c2ccc(C(C)O)cc2)c1=O` (stereo not shown) [Example 200, methyl 4-amino-7-bromo-1-(4-(1-hydroxyethyl)phenyl)-2-oxo-1,2-dihydro quinoline-3-carboxylate]: the IC50 in data set [1] came to 1.63 nM; in data set [2] it was 23.4 nM.

For `COC(=O)c1c(N)c2ccc(C(F)(F)F)nc2n(-c2ccc(Cl)nc2)c1=O` [Example 203, methyl 4-amino-1-(6-chloropyridin-3-yl)-2-oxo-7-(trifluoromethyl)-1,2-dihydro-1,8-naphthyridine-3-carboxylate], the IC50 in data set [1] was 1.26 nM; in data set [2], 25 nM.

Take `COC(=O)c1c(N)c2ccc(C(F)(F)F)nc2n(-c2ccc(C)nc2)c1=O` [Example 207, methyl 4-amino-1-(6-methylpyridin-3-yl)-2-oxo-7-(trifluoromethyl)-1,2-dihydro-1,8-naphthyridine-3-carboxylate]: the IC50 in data set [1] was determined as 2.17 nM; in data set [2], 53.2 nM.

On to `COC(=O)c1c(N)c2ccc(C(F)(F)F)nc2n(-c2ccc(OC)nc2)c1=O` [Example 208, methyl 4-amino-1-(6-methoxypyridin-3-yl)-2-oxo-7-(trifluoromethyl)-1,2-dihydro-1,8-naphthyridine-3-carboxylate], for which the values for the IC50 in data set [1] and in data set [2] were 4.09 nM and 70.9 nM, respectively.

Take `COC(=O)c1c(N)c2ccc(Br)cc2n(-c2ccc(C)nc2)c1=O` [Example 214, methyl 4-amino-7-bromo-1-(6-methylpyridin-3-yl)-2-oxo-1,2-dihydroquinoline-3-carboxylate]: the IC50 in data set [1] was determined as 2.89 nM. In data set [3], the AUC is 232 µg·h/mL, the peak level (Cmax) was 28600 ng/mL, the time to peak (Tmax) came out at 1 h and the half-life was 2.53 h.

Turning to `COC(=O)c1c(N)c2ccc(Br)nc2n(-c2cccc3cnccc23)c1=O` [Example 221, methyl 4-amino-7-bromo-1-(isoquinolin-5-yl)-2-oxo-1,2-dihydro-1,8-naphthyridine-3-carboxylate], the IC50 in data set [1] came out at 2.71 nM; in data set [2], 41.4 nM.

For the molecule `COC(=O)c1c(N)c2ccc(Br)cc2n(-c2ccc(N)cc2C)c1=O` [Example 238, methyl 4-amino-1-(4-amino-2-methylphenyl)-7-bromo-2-oxo-1,2-dihydroquinoline-3-carboxylate], in data set [1], the IC50 was 1.24 nM. Also, in data set [3], the AUC is 591 µg·h/mL, the Cmax turned out to be 37500 ng/mL, the time to peak (Tmax) was determined as 4 h and the half-life is 9.25 h.

For `COC(=O)c1c(N)c2ccc(Br)nc2n(-c2cccc3c(Cl)nccc23)c1=O` [Example 240, methyl 4-amino-1-(1-chloroisoquinolin-5-yl)-7-bromo-2-oxo-1,2-dihydro-1,8-naphthyridine-3-carboxylate], the figures for the IC50 in data set [1] and in data set [2] were 1.72 nM and 61.2 nM, respectively.

`COC(=O)c1c(N)c2ccc(Br)nc2n(-c2ccc3ccncc3c2)c1=O` [Example 244, methyl 4-amino-7-bromo-1-(isoquinolin-7-yl)-2-oxo-1,2-dihydro-1,8-naphthyridine-3-carboxylate]: the IC50 in data set [1] stood at 0.86 nM; in data set [2], 46.4 nM.

As to `COC(=O)c1c(N)c2ccc(I)cc2n(-c2ccc(N)cc2)c1=O` [Example 252, methyl 4-amino-1-(4-aminophenyl)-7-iodo-2-oxo-1,2-dihydro quinoline-3-carboxylate], the IC50 in data set [1] was 0.14 nM; in data set [2] it was 14.2 nM.

As for `COC(=O)c1c(N)c2ccc(Br)nc2n(-c2ccc(Cl)cc2)c1=O` [Example 265, methyl 4-amino-7-bromo-1-(4-chlorophenyl)-2-oxo-1,2-dihydro-1,8-naphthyridine-3-carboxylate], the IC50 in data set [1] was determined as 0.94 nM; in data set [2], 47.3 nM.

For `COC(=O)c1c(N)c2ccc(Br)nc2n(-c2ccc(C(C)O)cc2)c1=O` (stereo not shown) [Example 266, methyl 4-amino-1-(4-(1-hydroxyethyl)phenyl)-7-bromo-2-oxo-1,2-dihydro-1,8-naphthyridine-3-carboxylate], the IC50 was determined as 2.37 nM in data set [1] and 32.7 nM in data set [2].

Turning to `COC(=O)c1c(N)c2ccc(C(F)(F)F)cc2n(-c2ccc([C@@H](C)O)cc2)c1=O` [Example 272, methyl 4-amino-1-(4-(1-(R)-hydroxyethyl)phenyl)-2-oxo-7-(trifluoromethyl)-1,2-dihydroquinoline-3-carboxylate], the IC50 came out at 0.78 nM in data set [1] and 16.6 nM in data set [2].

For `COC(=O)c1c(N)c2ccc(C(F)(F)F)nc2n(-c2ccc(N)cc2Cl)c1=O` [Example 325, methyl 4-amino-1-(4-amino-2-chlorophenyl)-2-oxo-7-trifluoromethyl-1,2-dihydro-1,8-naphthyridine-3-carboxylate], the IC50 in data set [1] worked out at 2.29 nM. Further, in data set [3], the AUC is 452 µg·h/mL, the Cmax is 52800 ng/mL, the Tmax amounted to 1 h and the half-life is 6.81 h.

As to `COC(=O)c1c(N)c2ccc(OC(F)(F)F)cc2n(-c2ccc(N)cc2)c1=O` [Example 379, methyl 4-amino-1-(4-aminophenyl)-2-oxo-7-(trifluoromethoxy)-1,2-dihydroquinoline-3-carboxylate], in data set [1], the IC50 was found to be 1.41 nM. In data set [3], the area under the curve (AUC) is 468 µg·h/mL, the peak level (Cmax) was 18600 ng/mL, the time of peak concentration (Tmax) amounted to 4 h and the half-life is 16.5 h.
